# Laboratory results as given in ChEMBL document CHEMBL5506046, “Discovery of LLC355 as an Autophagy-Tethering Compound for the Degradation of Discoidin Domain Receptor 1” (J Med Chem, 2024).
# Calls of active or inactive are those of the source. The calls are words filed in the database; no cut-off is given here.
# What was measured:
# [1] = target: LC3/Epithelial discoidin domain-containing receptor 1 (Homo sapiens, UniProt Q08345+Q9BXW4+Q9GZQ8+Q9H492); test: Autophagosome tethering activity at DDR1 in human NCI-H23 cells assessed as protein degradation at 0.3 uM measured after 24 hrs by immunoblotting analysis relative to control; assay type: cell-based
# NCI-H23 [2] = test: Inhibition of cell migration in human NCI-H23 cells at 1 uM incubated for 24 hrs by transwell assay; assay type: functional, cell-based
# NCI-H23 [3] = test: Inhibition of cell invasion in human NCI-H23 cells at 1 uM incubated for 24 hrs by transwell assay; assay type: functional, cell-based
# NCI-H23 [4] = test: Inhibition of tumorigenicity in human NCI-H23 cells at 1 uM incubated for 10 days by colony formation assay; assay type: functional, cell-based; conditions: time 10.0 day
Activity [1] [%],Compound,inhibition (NCI-H23 [2]),inhibition (NCI-H23 [3]),inhibition (NCI-H23 [4])
0,CCc1ccc(C(=O)Nc2cc(CN3CCN(C(=O)COCCNC(=O)COc4c(Br)cc(/C=C5\C(=O)Nc6ccc(I)cc65)cc4Br)CC3)cc(C(F)(F)F)c2)cc1C#Cc1cnc2ccnn2c1,–,–,–
0,CCc1ccc(C(=O)Nc2cc(CN3CCN(CCOCCOCC(=O)NCCCN(C(=O)c4ccc(C)cc4)[C@@H](c4nc5cc(Cl)ccc5c(=O)n4Cc4ccccc4)C(C)C)CC3)cc(C(F)(F)F)c2)cc1C#Cc1cnc2ccnn2c1,–,–,–
0,CCc1ccc(C(=O)Nc2cc(CN3CCN(CCOCCOCCOCC(=O)NCCCN(C(=O)c4ccc(C)cc4)[C@@H](c4nc5cc(Cl)ccc5c(=O)n4Cc4ccccc4)C(C)C)CC3)cc(C(F)(F)F)c2)cc1C#Cc1cnc2ccnn2c1,–,–,–
13,CCc1ccc(C(=O)Nc2cc(CN3CCN(CCCCCC(=O)NCCCN(C(=O)c4ccc(C)cc4)[C@@H](c4nc5cc(Cl)ccc5c(=O)n4Cc4ccccc4)C(C)C)CC3)cc(C(F)(F)F)c2)cc1C#Cc1cnc2ccnn2c1,–,–,–
16,CCc1ccc(C(=O)Nc2cc(CN3CCN(C(=O)CNC(=O)COc4c(Br)cc(/C=C5\C(=O)Nc6ccc(I)cc65)cc4Br)CC3)cc(C(F)(F)F)c2)cc1C#Cc1cnc2ccnn2c1,–,–,–
6,CCc1ccc(C(=O)Nc2cc(CN3CCN(CCCCCCCC(=O)NCCCN(C(=O)c4ccc(C)cc4)[C@@H](c4nc5cc(Cl)ccc5c(=O)n4Cc4ccccc4)C(C)C)CC3)cc(C(F)(F)F)c2)cc1C#Cc1cnc2ccnn2c1,–,–,–
–,CC#Cc1cc(C(=O)Nc2cc(CN3CCN(CCOCC(=O)NCCCN(C(=O)c4ccc(C)cc4)[C@@H](c4nc5cc(Cl)ccc5c(=O)n4Cc4ccccc4)C(C)C)CC3)cc(C(F)(F)F)c2)ccc1CC,inactive,inactive,inactive
0,CCc1ccc(C(=O)Nc2cc(CN3CCN(CCCCCCCCCC(=O)NCCCN(C(=O)c4ccc(C)cc4)[C@@H](c4nc5cc(Cl)ccc5c(=O)n4Cc4ccccc4)C(C)C)CC3)cc(C(F)(F)F)c2)cc1C#Cc1cnc2ccnn2c1,–,–,–
–,CCc1ccc(C(=O)Nc2cc(CN3CCN(C)CC3)cc(C(F)(F)F)c2)cc1C#Cc1cnc2ccnn2c1,inactive,inactive,inactive
